Molecules are shown by their SMILES. Values joined by “and” are separate entries in the source; they are usually repeats but may differ in a detail not shown here. Equal values may be shown once.

This note sets out measurements from publication PMC7004565, “Nucleotide inhibition of the pancreatic ATP-sensitive K^+ channel explored with patch-clamp fluorometry” (eLife, 2020).

In assay [1] the target is T1, Kir6.2-GFP (no SUR1) (Homo sapiens, UniProt Q14654).
T1 construct: ANAP labelling is specific and only full-length Kir6.2 is expressed at the cell membrane; expressed in transfected cells; host or cells: HEK-293T
T1 sequence (Q14654 1-390): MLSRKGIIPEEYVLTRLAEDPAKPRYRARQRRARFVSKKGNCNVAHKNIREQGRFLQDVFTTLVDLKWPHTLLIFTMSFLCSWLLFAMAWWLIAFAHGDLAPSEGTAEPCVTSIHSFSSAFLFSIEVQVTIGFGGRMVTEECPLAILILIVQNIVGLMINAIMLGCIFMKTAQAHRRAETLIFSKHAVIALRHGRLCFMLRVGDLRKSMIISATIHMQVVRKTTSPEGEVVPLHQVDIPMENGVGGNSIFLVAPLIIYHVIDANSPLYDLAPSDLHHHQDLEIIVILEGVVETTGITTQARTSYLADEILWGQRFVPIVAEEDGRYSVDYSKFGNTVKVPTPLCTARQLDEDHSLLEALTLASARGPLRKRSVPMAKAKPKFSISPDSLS
As to the kind of experiment: Current inhibition in excised inside-out patches. The format is biochemical. The note with it: excised inside-out patches, no SUR1, Mg2+-free, Hill fit. As for the experimental part:
(§1) Currents were measured from patches from cells expressing KATP that were excised in the absence of Mg^2+. Under such conditions, nucleotides can bind to both sites on SUR1, but no activation occurs, allowing inhibitory currents to be measured in isolation ([Gribble et al., 1998]; [Ueda et al., 1999]; [Puljung et al., 2019]).

For assay [2], the target named is T1, Kir6.2-GFP (no SUR1). As to the kind of experiment: FRET (ANAP quenching) nucleotide binding in unroofed membranes. The text has this:
To measure nucleotide binding, cells transfected with Kir6.2*-GFP + SUR1 were briefly sonicated, leaving behind unroofed plasma membrane fragments ([Heuser, 2000]; [Zagotta et al., 2016]; [Puljung et al., 2019]) containing ANAP-labelled KATP channels with the intracellular nucleotide-binding sites exposed to the bath solution. The sample was excited with a 385 nm LED and emitted fluorescence from the membrane fragments was passed through a spectrometer, allowing us to separate ANAP, GFP, and TNP-ATP fluorescence by peak wavelength (Figure 1E,F). As expected from FRET, increasing the concentration of TNP-ATP caused a decrement in the ANAP peak at 472 nm and a concomitant increase in the TNP-ATP peak at 561 nm (Figure 1F). We used the quenching of the ANAP peak as a direct measure of TNP-ATP binding as this signal was specific to KATP. In contrast, the peak TNP-ATP fluorescence may include contributions from both specific and non-specific nucleotide binding, as well as direct excitation of TNP-ATP in solution by the 385 nm excitation light. Due to the sharp cut-off of the GFP emission spectrum at shorter wavelengths, our measurements of peak ANAP fluorescence were unaffected by the presence of the GFP tag on Kir6.2.
SUR1 plays a complex role in the regulation of Kir6.2. It increases the Popen of the channel and allows for the activation of the channel by Mg-nucleotides ([Nichols et al., 1996]; [Tucker et al., 1997]; [Babenko and Bryan, 2003]; [Chan, 2003]; [Fang et al., 2006]). However, it also increases the sensitivity of Kir6.2 to nucleotide inhibition ([Babenko and Bryan, 2003]; [Chan, 2003]; [Fang et al., 2006]). To understand the effect of SUR1 on nucleotide inhibition of KATP, we expressed Kir6.2*-GFP in the absence of SUR1 in unroofed membranes and measured TNP-ATP binding (Figure 4—figure supplement 1A). […] Unfortunately, we were unable to achieve high enough expression of Kir6.2*-GFP alone to carry out PCF experiments in the absence of SUR1. […]
Epifluorescence imaging and spectroscopy were performed using a Nikon Eclipse TE2000-U microscope with a 60x water immersion objective (Plan Apo VC, NA = 1.2, Nikon; Kingston upon Thames, UK) or a 100x oil immersion objective (Nikon, Apo TIRF, NA = 1.49). […] Fluorescence spectra were collected by exciting ANAP as above but using a 400 nm long-pass emission filter (ThorLabs), then passing emitted light through an IsoPlane 160 Spectrometer (Princeton Instruments; Trenton, NJ) with a 300 grooves mm^-1 grating. […]
Unroofed membranes were prepared as described previously ([Heuser, 2000]; [Zagotta et al., 2016]; [Puljung et al., 2019]). […] Unroofed membrane fragments were nearly invisible in bright-field images and identified by their GFP and ANAP fluorescence. […]

The target of assay [3] is Kir6.2-GFP + SUR1 (Homo sapiens, UniProt Q14654). As to the kind of experiment: Current inhibition in excised inside-out patches (patch-clamp fluorometry). The format is biochemical. Further details: full length, fully ANAP-labelled Kir6.2 protein was produced and successfully trafficked to the membrane in the presence of SUR1; expressed in transfected cells; host or cells: HEK-293T. To be noted: excised inside-out patches, Mg2+-free, Hill fit. As for the experimental part: as §1
Kir6.2-GFP + SUR1, sequence (Q09428 whole entry partner, one chain of several): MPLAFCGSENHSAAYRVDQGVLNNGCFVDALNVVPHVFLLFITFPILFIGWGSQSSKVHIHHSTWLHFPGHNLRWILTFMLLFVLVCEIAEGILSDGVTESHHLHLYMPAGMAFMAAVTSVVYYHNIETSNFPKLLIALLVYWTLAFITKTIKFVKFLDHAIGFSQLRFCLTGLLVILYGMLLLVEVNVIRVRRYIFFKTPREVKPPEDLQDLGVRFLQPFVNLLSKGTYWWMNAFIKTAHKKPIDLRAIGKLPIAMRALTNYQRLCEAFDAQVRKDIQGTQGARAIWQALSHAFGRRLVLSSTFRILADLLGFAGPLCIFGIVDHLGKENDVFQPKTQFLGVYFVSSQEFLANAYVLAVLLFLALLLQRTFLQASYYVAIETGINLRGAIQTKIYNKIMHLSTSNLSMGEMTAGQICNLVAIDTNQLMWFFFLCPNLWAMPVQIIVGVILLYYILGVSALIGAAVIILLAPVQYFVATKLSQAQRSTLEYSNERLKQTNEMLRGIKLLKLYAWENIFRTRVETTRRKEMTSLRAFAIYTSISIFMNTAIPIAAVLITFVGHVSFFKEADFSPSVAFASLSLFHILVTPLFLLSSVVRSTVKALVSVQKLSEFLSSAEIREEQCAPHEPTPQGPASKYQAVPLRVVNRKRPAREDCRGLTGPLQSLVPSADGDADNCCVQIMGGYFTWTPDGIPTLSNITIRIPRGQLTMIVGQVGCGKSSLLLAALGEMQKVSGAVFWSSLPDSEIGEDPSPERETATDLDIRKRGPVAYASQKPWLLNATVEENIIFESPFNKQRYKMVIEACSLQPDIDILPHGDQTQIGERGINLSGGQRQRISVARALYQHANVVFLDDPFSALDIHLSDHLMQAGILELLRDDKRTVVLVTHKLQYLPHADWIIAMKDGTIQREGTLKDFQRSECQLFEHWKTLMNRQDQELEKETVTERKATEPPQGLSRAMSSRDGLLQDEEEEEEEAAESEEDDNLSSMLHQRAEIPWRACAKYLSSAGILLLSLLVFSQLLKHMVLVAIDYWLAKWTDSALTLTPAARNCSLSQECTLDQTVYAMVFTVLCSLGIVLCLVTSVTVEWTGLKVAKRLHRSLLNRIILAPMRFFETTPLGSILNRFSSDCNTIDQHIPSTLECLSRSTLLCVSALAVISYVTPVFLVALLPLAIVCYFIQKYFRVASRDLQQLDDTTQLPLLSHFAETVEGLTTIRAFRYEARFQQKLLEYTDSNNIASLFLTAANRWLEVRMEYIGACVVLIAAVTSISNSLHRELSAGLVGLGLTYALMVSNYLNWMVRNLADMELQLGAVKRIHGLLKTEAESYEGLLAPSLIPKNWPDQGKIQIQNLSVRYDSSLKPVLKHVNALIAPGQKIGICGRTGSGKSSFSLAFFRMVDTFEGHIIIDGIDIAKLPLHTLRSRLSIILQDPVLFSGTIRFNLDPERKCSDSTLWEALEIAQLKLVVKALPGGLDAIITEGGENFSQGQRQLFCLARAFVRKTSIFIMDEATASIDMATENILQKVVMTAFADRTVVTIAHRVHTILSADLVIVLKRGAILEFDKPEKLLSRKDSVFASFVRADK
Currents were measured as described above.

As usually defined, the IC50 is the concentration that gives 50% inhibition. What is called Emax is the size of the effect at its maximum, as opposed to the concentration needed. The EC50 is the concentration at which the effect is half-maximal. Take `Nc1ncnc2c1ncn2[C@@H]1O[C@H](COP(=O)(O)OP(=O)(O)OP(=O)(O)O)[C@H]2OC3(O[C@H]21)C([N+](=O)[O-])=CC(=[N+]([O-])[O-])C=C3[N+](=O)[O-]` (some centres unmarked) [TNP-ATP, trinitrophenyl-ATP]: the IC50 in assay [1] (IC50 current inhibition) was 273 µM and 275 µM; in assay [3] (IC50 current inhibition) it was 6.2 µM and 6.23 µM and 6.17 µM. In addition, the “h (Hill coefficient) current inhibition” value came to 1.09 in assay [1] and 0.92 in assay [3]. Moreover, the “increase in apparent EC50 compared to the same construct in the presence of SUR1” value in assay [2] is “approximately 1.5 fold”. The “h (Hill coefficient) fluorescence quenching” value in assay [2] (no SUR1, Hill fit) is recorded as 0.83. The Emax in assay [2] (no SUR1, Hill fit, fraction, read-out: Emax fluorescence quenching) worked out at 92%. Further, the concentration for a half-maximal effect (EC50) in assay [2] (no SUR1, Hill fit, n = 14, read-out: EC50 fluorescence quenching) was 37.6 µM and 38 µM.
